For series [1], the target named is cruzain (Trypanosoma cruzi, UniProt P25779). In words: biochemical. The class given is biochemical. Particulars: for change of cruzain IC50 between low and high detergent concentration: 0.001% vs 0.01% Triton X-100; for cruzain inhibition (in words): Figure 1 analogs.
In series [2] the target is AmpC β-lactamase (Escherichia coli, UniProt P00811). In words: AmpC β-lactamase detergent-sensitive inhibition. The format is biochemical. The settings on record: reversal by 0.01% Triton.
Chain of AmpC β-lactamase (P00811 20-377): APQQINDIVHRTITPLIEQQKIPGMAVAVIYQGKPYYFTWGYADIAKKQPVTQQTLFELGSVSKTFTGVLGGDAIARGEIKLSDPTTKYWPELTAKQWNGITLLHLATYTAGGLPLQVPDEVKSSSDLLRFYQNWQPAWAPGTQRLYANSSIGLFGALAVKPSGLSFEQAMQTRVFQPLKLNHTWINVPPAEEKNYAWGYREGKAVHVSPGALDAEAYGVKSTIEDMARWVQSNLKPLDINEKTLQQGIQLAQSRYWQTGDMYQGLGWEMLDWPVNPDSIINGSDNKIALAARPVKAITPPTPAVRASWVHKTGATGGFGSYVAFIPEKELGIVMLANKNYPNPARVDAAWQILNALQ
A short description of series [3]: particle. Particulars: for particles? lowest evaluated concentration at which particle formation was observed: flow cytometry, in some cases confirmed by DLS. The format is physicochemical. On the technique in general: Flow cytometry measures light scatter and fluorescence of single cells or particles in a stream.
Where [4] appears, read: high Triton (0.01% Triton X-100), 23 at 50 μM.
Where [5] appears, read: low Triton (0.001% Triton X-100), 23 at 5 μM, 1 at 25 μM.

Chain of cruzain (P25779 123-467): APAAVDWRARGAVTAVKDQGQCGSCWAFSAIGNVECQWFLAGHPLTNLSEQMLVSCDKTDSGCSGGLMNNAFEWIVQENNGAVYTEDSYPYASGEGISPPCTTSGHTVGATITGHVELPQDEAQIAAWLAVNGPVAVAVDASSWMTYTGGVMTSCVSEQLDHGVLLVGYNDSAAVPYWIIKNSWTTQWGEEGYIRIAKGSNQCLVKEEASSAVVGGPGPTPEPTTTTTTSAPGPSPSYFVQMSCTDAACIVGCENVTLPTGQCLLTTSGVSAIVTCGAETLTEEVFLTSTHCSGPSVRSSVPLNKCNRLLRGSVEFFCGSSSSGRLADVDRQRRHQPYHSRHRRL

`Nc1ncccc1C(=O)OCC(=O)Nc1cc(Cl)ccc1Cl` [Compound 1]: in series [1], the “change of cruzain IC50 between low and high detergent concentration” value (“change” below) is on record as ~ 3 fold. Besides, the “dependence of cruzain inhibition on incubation time” value in series [1] (0.01% Triton X-100) was “independent of incubation time”. In addition, the “mode of cruzain inhibition” value in series [1] (setting [4]) is “competitive inhibition”; in series [1] (setting [5]), “non-competitive”. Also, the “detergent-reversible inhibition of AmpC β-lactamase” value in series [2] is “found to inhibit AmpC, and its inhibition was reversed by 0.01% Triton”. Besides, the “particles? lowest evaluated concentration at which particle formation was observed” value in series [3] was determined as 25 µM.
In the case of `Nc1ncccc1C(=O)OCC(=O)NC1CCCCCC1` [Compound 2], the “change” value in series [1] is reported as “essentially unaltered”. The “mode of cruzain inhibition” value in series [1] (setting [4]) is “competitive inhibitors”.
On to `CCC(NC(=O)COC(=O)c1cccnc1N)c1ccc(Br)cc1` (stereo not shown) [Compound 3], for which, in series [1], the “change” value was “essentially unaltered”. In addition, the “mode of cruzain inhibition” value in series [1] (setting [4]) is “competitive inhibitors”.
Turning to `O=C(COC(=O)c1ccccn1)Nc1cc(Cl)ccc1Cl` [Compound 4], in series [1], the “cruzain inhibition (in words)” value is “essentially inactive”.
On to `Cc1cccc(C(=O)OCC(=O)Nc2cc(Cl)ccc2Cl)c1` [Compound 5], for which the “cruzain inhibition (in words)” value in series [1] is “essentially inactive”.
For `Nc1ccccc1-c1nnc(C(=O)Nc2ccc3oc4c(c3c2)CCCC4)o1` [Compound 12], the “formation of colloidal aggregates (particles)” value in series [3] (DLS and flow cytometry, 0.001% Triton X-100, relevant inhibitory concentrations) is listed as “the exception”. In addition, the “particles? lowest evaluated concentration at which particle formation was observed” value in series [3] was more than 100 µM.
For the compound `CCN1CCC[C@H]1CNC(=O)c1nnc(-c2ccccc2N)o1` [Compound 18], the “particles? lowest evaluated concentration at which particle formation was observed” value in series [3] is more than 200 µM.
As to `Nc1ccccc1-c1nnc(C(=O)Nc2cc(-c3cccs3)[nH]n2)o1` [Compound 23], inhibition in series [1] was half-maximal at 82.4 µM (IC50). Moreover, the “mode of cruzain inhibition” value in series [1] (setting [4]) is “competitive”; in series [1] (setting [5]), “non-competitive”.
As for `Cc1cc(NC(=O)c2nnc(-c3ccccc3N)o2)n[nH]1` [Compound 25], in series [2], the “detergent-reversible inhibition of AmpC β-lactamase” value is listed as “the exception”.

Source of the values: article PMC3760508 (Journal of medicinal chemistry, 2009).
